In patent US10799507B2, “5-(7H-pyrrolo[2,3-d]pyrimidin-4-yl)-5-azaspiro[2.5]octane-8-carboxylic acid derivatives as novel JAK kinase inhibitors” (LEO Pharma A/S, priority 2017, dated 2020) one finds EC50 data, which are given here for 21 compounds.

Format in all cases: biochemical
The target in one assay is JAK1 (Homo sapiens (Human), UniProt P23458). In words: JAK kinase assay (HTRF), JAK1. The note with it: catalytic domain, ATP at Km (7 μM). The method in brief: (§1)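 Catalytic-domain human JAK1 (GST-tagged, aa 850-1154) or His-tagged JAK2, baculovirus-expressed, phosphorylated 1 µM biotinylated TK peptide at Km ATP (JAK1 7 µM, 10 mM MgCl2, 50 nM SEB; JAK2 4 µM, 5 mM MgCl2) in pH 7.0 Hepes, 20-30 min RT. EDTA stop; overnight streptavidin-XL665/cryptate HTRF read.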
Chain of JAK1 (P23458 850-1154): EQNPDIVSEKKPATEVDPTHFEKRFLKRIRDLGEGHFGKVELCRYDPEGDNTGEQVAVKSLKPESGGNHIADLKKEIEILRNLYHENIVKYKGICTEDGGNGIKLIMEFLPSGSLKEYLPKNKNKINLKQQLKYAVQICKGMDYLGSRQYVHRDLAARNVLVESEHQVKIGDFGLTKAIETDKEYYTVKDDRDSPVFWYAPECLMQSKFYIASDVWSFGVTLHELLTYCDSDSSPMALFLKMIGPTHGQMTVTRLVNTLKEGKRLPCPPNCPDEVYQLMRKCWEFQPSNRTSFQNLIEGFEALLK
In general terms: In TR-FRET formats the signal depends on donor and acceptor labels being close together.

Another assay deals with JAK2 (Homo sapiens (Human), UniProt O60674). The assay can be described thus: JAK kinase assay (HTRF), JAK2. Particulars: catalytic domain, ATP at Km (4 μM). In outline:
as §1

A further assay deals with JAK3 (Homo sapiens (Human), UniProt P52333). The assay can be described thus: JAK kinase assay (HTRF), JAK3. Particulars: catalytic domain, ATP at Km (2 μM). The method in brief:
(§2)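 Catalytic-domain human kinases, GST-tagged TYK2 (aa 871-1187) and His-tagged JAK3, phosphorylate 1 μM TK Substrate-Biotin for 20-30 min at RT in 50 mM Hepes pH 7.0, 5 mM MgCl2, ATP at Km (TYK2 13 μM with 50 nM SEB; JAK3 2 μM). Phosphorylation detected by HTRF.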

The next assay deals with TYK2 (Homo sapiens (Human), UniProt P29597). The assay can be described thus: JAK kinase assay (HTRF), TYK2. Particulars: catalytic domain, ATP at Km (13 μM). In outline: as §2
Chain of TYK2 (P29597 871-1187): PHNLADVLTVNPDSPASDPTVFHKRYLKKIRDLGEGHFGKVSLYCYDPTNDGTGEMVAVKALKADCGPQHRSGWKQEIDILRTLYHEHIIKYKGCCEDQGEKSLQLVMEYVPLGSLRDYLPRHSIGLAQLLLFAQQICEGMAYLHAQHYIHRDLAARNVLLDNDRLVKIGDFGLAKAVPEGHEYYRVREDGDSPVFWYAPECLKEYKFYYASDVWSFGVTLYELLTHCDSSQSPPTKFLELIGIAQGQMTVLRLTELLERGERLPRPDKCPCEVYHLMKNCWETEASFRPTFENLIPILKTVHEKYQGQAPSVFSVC

Chain of JAK3 (P52333 822-1111): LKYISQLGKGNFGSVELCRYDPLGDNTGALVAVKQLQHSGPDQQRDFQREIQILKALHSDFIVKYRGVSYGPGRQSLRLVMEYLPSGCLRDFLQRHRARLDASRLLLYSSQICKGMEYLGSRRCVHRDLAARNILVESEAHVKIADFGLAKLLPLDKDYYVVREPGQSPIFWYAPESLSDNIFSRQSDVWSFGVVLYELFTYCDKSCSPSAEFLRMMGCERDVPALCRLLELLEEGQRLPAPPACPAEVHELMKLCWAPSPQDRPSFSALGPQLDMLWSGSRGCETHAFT
Chain of JAK2 (O60674 849-1124): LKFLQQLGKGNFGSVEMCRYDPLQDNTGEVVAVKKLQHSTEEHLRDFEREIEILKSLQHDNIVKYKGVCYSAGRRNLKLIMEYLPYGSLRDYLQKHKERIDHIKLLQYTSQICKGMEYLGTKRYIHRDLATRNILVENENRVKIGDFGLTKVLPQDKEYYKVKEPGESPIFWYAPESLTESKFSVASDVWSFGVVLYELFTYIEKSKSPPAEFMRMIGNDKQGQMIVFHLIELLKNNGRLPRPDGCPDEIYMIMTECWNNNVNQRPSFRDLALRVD

For `O=C(NCC1CC(F)(F)C1)[C@H](O)CNC(=O)[C@H]1CCN(c2ncnc3[nH]ccc23)CC12CC2` (single isomer, unassigned) [Example 130], the EC50 at JAK1 was found to be 23.2 nM; at JAK2, 45.9 nM; on JAK3 it was 51 nM; on TYK2 it was 490 nM.

Take `N#Cc1ccc([C@H](CO)NC(=O)[C@H]2CCN(c3ncnc4[nH]ccc34)CC23CC3)nc1` [Example 47, (8S)-N-[(1R)-1-(5-cyano-2-pyridyl)-2-hydroxy-ethyl]-5-(7H-pyrrolo[2,3-d]pyrimidin-4-yl)-5-azaspiro[2.5]octane-8-carboxamide]: the EC50 on JAK1 worked out at 3.1 nM; at JAK2 it was 13.7 nM; on JAK3 it was 32.4 nM; on TYK2, 176 nM.

For `N#Cc1ccc([C@@H](CO)NC(=O)[C@H]2CCN(c3ncnc4[nH]ccc34)CC23CC3)nc1` [Example 108, (8S)-N-[(1S)-1-(5-cyano-2-pyridyl)-2-hydroxy-ethyl]-5-(7H-pyrrolo[2,3-d]pyrimidin-4-yl)-5-azaspiro[2.5]octane-8-carboxamide], the EC50 amounted to 10.3 nM on JAK1, 48.2 nM at JAK2, 85.1 nM at JAK3 and 347 nM on TYK2.

Turning to `COc1cc(C#N)ccc1[C@H](C)NC(=O)[C@H]1CCN(c2ncnc3[nH]ccc23)CC12CC2` [Example 97, (8S)-N-[(1S)-1-(4-cyano-2-methoxy-phenyl)ethyl]-5-(7H-pyrrolo[2,3-d]pyrimidin-4-yl)-5-azaspiro[2.5]octane-8-carboxamide], the EC50 on JAK1 came to 8.7 nM; at JAK2, 36 nM; on JAK3 it was 226 nM; on TYK2, 315 nM.

On to `O=C(NC[C@H](O)c1ccc(F)cn1)[C@H]1CCN(c2ncnc3[nH]ccc23)CC12CC2` [Example 46, (8S)-N-[(2S)-2-(5-fluoro-2-pyridyl)-2-hydroxy-ethyl]-5-(7H-pyrrolo[2,3-d]pyrimidin-4-yl)-5-azaspiro[2.5]octane-8-carboxamide], for which the EC50 worked out at 3.1 nM on JAK1, 8.8 nM at JAK2, 23.8 nM at JAK3 and 48.1 nM on TYK2.

Regarding `C[C@@H](NC(=O)[C@H]1CCN(c2ncnc3[nH]ccc23)CC12CC2)c1ccc(C#N)cc1F` [Example 101, (8S)-N-[(1R)-1-(4-cyano-2-fluoro-phenyl)ethyl]-5-(7H-pyrrolo[2,3-d]pyrimidin-4-yl)-5-azaspiro[2.5]octane-8-carboxamide], the EC50 at JAK1 came out at 9.3 nM; at JAK2, 72.8 nM; at JAK3 it was 157 nM; at TYK2, 516 nM.

As to `CC(CO)(NC(=O)C1CCN(c2ncnc3[nH]ccc23)CC12CC2)c1ccccc1` (stereo not drawn) [Example 118, N-(2-hydroxy-1-methyl-1-phenyl-ethyl)-5-(7H-pyrrolo[2,3-d]pyrimidin-4-yl)-5-azaspiro[2.5]octane-8-carboxamide], the EC50 at JAK1 was 13.1 nM; on JAK2, 24.3 nM; on JAK3, 77.7 nM; on TYK2 it was 832 nM.

As to `O=C(N[C@@H](CO)Cc1ccccc1)C1CCN(c2ncnc3[nH]ccc23)CC12CC2` (stereo partly drawn) [Example 137, N-[(1R)-1-benzyl-2-hydroxy-ethyl]-5-(7H-pyrrolo[2,3-d]pyrimidin-4-yl)-5-azaspiro[2.5]octane-8-carboxamide], the EC50 at JAK1 is 38 nM; at JAK2 it was 30.5 nM; at JAK3, 91.6 nM; at TYK2 it was 1380 nM.

For `CCc1cc(C#N)ccc1[C@H](CO)NC(=O)[C@H]1CCN(c2ncnc3[nH]ccc23)CC12CC2` [Example 89, (8S)-N-[(1R)-1-(4-cyano-2-ethyl-phenyl)-2-hydroxy-ethyl]-5-(7H-pyrrolo[2,3-d]pyrimidin-4-yl)-5-azaspiro[2.5]octane-8-carboxamide], the half-maximal effective concentration (EC50) is 7.5 nM on JAK1, 31 nM on JAK2, 53.7 nM on JAK3 and 284 nM on TYK2.

Take `O=C(OCc1ccccc1)[C@H](CO)NC(=O)[C@H]1CCN(c2ncnc3[nH]ccc23)CC12CC2` [Example 138, Benzyl (2S)-3-hydroxy-2-[[(8S)-5-(7H-pyrrolo[2,3-d]pyrimidin-4-yl)-5-azaspiro[2.5]octane-8-carbonyl]amino]propanoate]: the EC50 was 38.2 nM at JAK1, 112 nM on JAK2, 90.9 nM on JAK3 and 1100 nM at TYK2.

Take `O=C(N[C@H](CO)C(=O)OCC1(CO)CC1)[C@H]1CCN(c2ncnc3[nH]ccc23)CC12CC2` [Example 116, [1-(hydroxymethyl)cyclopropyl]methyl (2R)-3-hydroxy-2-[[(8S)-5-(7H-pyrrolo[2,3-d]pyrimidin-4-yl)-5-azaspiro[2.5]octane-8-carbonyl]amino]propanoate]: the EC50 on JAK1 amounted to 12.4 nM; at JAK2, 24.7 nM; on JAK3, 47.8 nM; on TYK2 it was 210 nM.

For `COc1cc(C#N)ccc1CNC(=O)[C@H]1CCN(c2ncnc3[nH]ccc23)CC12CC2` [Example 71, (8S)-N-[(4-cyano-2-methoxy-phenyl)methyl]-5-(7H-pyrrolo[2,3-d]pyrimidin-4-yl)-5-azaspiro[2.5]octane-8-carboxamide], the EC50 at JAK1 turned out to be 5.8 nM; on JAK2, 14.2 nM; on JAK3, 63.1 nM; at TYK2, 121 nM.

Regarding `O=C(NCc1ccc(F)cc1)C1CCN(c2ncnc3[nH]ccc23)CC12CC2` (stereo not drawn) [Example 53, N-[(4-fluorophenyl)methyl]-5-(7H-pyrrolo[2,3-d]pyrimidin-4-yl)-5-azaspiro[2.5]octane-8-carboxamide], the EC50 on JAK1 came out at 3.6 nM; on JAK2, 8.9 nM; at JAK3, 20.8 nM; on TYK2 it was 106 nM.

Take `N#CCC1(CNC(=O)C2CCN(c3ncnc4[nH]ccc34)CC23CC3)CC1` (stereo not drawn) [Example 112, N-[[1-(cyanomethyl)cyclopropyl]methyl]-5-(7H-pyrrolo[2,3-d]pyrimidin-4-yl)-5-azaspiro[2.5]octane-8-carboxamide]: the EC50 at JAK1 amounted to 11.3 nM; on JAK2, 32.7 nM; on JAK3 it was 46 nM; on TYK2, 518 nM.

With `O=C(N[C@H](CO)Cc1ccccc1)C1CCN(c2ncnc3[nH]ccc23)CC12CC2` (stereo partly drawn) [Example 141, N-[(1S)-1-benzyl-2-hydroxy-ethyl]-5-(7H-pyrrolo[2,3-d]pyrimidin-4-yl)-5-azaspiro[2.5]octane-8-carboxamide], the 50% effective concentration (EC50) on JAK1 came to 41.2 nM; on JAK2, 81.6 nM; on JAK3, 52 nM; at TYK2 it was 4160 nM.

`O=C(N[C@H](CO)C(=O)OCc1ccccc1)[C@H]1CCN(c2ncnc3[nH]ccc23)CC12CC2` [Example 80, benzyl (2R)-3-hydroxy-2-[[(8S)-5-(7H-pyrrolo[2,3-d]pyrimidin-4-yl)-5-azaspiro[2.5]octane-8-carbonyl]amino]propanoate]: the half-maximal effective concentration (EC50) on JAK1 is 6.7 nM; at JAK2, 21.8 nM; on JAK3 it was 24.3 nM; at TYK2, 119 nM.

Regarding `O=C(NCC1(CO)CC(F)(F)C1)[C@H](O)CNC(=O)[C@H]1CCN(c2ncnc3[nH]ccc23)CC12CC2` [Example 129, (8S)-N-[(2R)-3-[[3,3-difluoro-1-(hydroxymethyl)cyclobutyl]methylamino]-2-hydroxy-3-oxo-propyl]-5-(7H-pyrrolo[2,3-d]pyrimidin-4-yl)-5-azaspiro[2.5]octane-8-carboxamide], the EC50 on JAK1 was determined as 21.2 nM; on JAK2, 37.6 nM; at JAK3, 41.1 nM; on TYK2 it was 385 nM.

As for `Cc1cc([C@@H](O)[C@H](C)NC(=O)[C@H]2CCN(c3ncnc4[nH]ccc34)CC23CC3)ncc1F` [Example 133, (8S)-N-[(1S,2S)-2-(5-fluoro-4-methyl-2-pyridyl)-2-hydroxy-1-methyl-ethyl]-5-(7H-pyrrolo[2,3-d]pyrimidin-4-yl)-5-azaspiro[2.5]octane-8-carboxamide], the EC50 was 27.3 nM at JAK1, 37.5 nM at JAK2, 148 nM on JAK3 and 375 nM at TYK2.

On to `Cc1cc(F)ccc1[C@H](CO)NC(=O)[C@H]1CCN(c2ncnc3[nH]ccc23)CC12CC2` [Example 77, (8S)-N-[(1R)-1-(4-fluoro-2-methyl-phenyl)-2-hydroxy-ethyl]-5-(7H-pyrrolo[2,3-d]pyrimidin-4-yl)-5-azaspiro[2.5]octane-8-carboxamide], for which the 50% effective concentration (EC50) on JAK1 came to 6.2 nM; at JAK2, 16.3 nM; on JAK3, 31.3 nM; at TYK2 it was 115 nM.

Consider `O=C(NCCc1ccccc1)C1CCN(c2ncnc3[nH]ccc23)CC12CC2` (stereo not drawn) [Example 114, N-phenethyl-5-(7H-pyrrolo[2,3-d]pyrimidin-4-yl)-5-azaspiro[2.5]octane-8-carboxamide], for which the EC50 is 11.7 nM on JAK1, 37 nM on JAK2, 64.8 nM on JAK3 and 858 nM on TYK2.

As to `C[C@@H](NC(=O)C1CCN(c2ncnc3[nH]ccc23)CC12CC2)c1ccccc1` (stereo partly drawn) [Example 136, N-[(1R)-1-phenylethyl]-5-(7H-pyrrolo[2,3-d]pyrimidin-4-yl)-5-azaspiro[2.5]octane-8-carboxamide], the 50% effective concentration (EC50) on JAK1 was 33.8 nM; on JAK2 it was 55.1 nM; at JAK3, 111 nM; on TYK2 it was 1460 nM.

The term EC50 denotes the concentration that produces a half-maximal response.
